{"source": "patent US10377770B2", "about": "(Novartis AG, priority 2015, dated 2019)", "data": [{"target": "C-Raf FL (full length CRAF with Y340E and Y341E activating mutations, co-expressed with h14-3-3 zeta) (Homo sapiens (Human), UniProt P04049, Y340E/Y341E)", "sequence (P04049 whole entry Y340E/Y341E)": "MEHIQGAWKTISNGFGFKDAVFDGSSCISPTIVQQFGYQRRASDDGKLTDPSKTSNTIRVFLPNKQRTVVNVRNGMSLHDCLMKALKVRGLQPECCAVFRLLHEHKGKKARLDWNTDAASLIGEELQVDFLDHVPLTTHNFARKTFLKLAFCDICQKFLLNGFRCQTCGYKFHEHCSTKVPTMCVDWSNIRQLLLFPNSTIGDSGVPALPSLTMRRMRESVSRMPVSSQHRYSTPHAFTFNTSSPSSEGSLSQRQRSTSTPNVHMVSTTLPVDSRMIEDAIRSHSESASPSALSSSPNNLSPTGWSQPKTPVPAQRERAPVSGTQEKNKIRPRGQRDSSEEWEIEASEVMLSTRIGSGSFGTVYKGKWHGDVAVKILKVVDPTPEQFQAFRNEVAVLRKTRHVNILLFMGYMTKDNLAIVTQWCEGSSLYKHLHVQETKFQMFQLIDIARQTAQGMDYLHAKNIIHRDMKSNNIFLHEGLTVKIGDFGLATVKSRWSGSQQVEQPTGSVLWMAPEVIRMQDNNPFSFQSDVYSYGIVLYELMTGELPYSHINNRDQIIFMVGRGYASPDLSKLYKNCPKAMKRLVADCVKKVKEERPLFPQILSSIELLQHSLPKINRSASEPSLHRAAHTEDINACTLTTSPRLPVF", "sequence (P63104 whole entry partner)": "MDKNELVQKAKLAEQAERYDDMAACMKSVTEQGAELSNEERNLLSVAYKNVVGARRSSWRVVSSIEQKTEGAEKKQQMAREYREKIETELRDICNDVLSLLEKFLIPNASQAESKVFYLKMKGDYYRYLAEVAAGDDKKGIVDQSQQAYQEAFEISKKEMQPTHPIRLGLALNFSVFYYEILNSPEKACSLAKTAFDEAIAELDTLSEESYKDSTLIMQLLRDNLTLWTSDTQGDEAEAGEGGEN", "test": "In vitro Raf activity determination, AlphaScreen p-MEK readout, c-Raf (C-Raf FL)", "type": "biochemical", "conditions": "c-Raf approximately 4 nM, ATP 1 μM, pre-incubation 60 minutes, reaction 1 hour", "method_in_brief": "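Full-length C-Raf (~4 nM) pre-incubated 60 min at room temperature with compound and kinase-dead biotinylated MEK1 (~10 nM) in Tris pH 7.5, 15 mM MgCl2, BSA, DTT. Reaction started with 1 μM ATP and run 1 h at room temperature. Phospho-MEK detected by AlphaScreen with anti-p-MEK antibody.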", "units": {"IC50": "pM"}, "values": [{"compound": "CCN1C(=O)C2COCCN2c2cc(-c3cc(NC(=O)c4ccnc(C(F)(F)F)c4)ccc3C)cnc21", "note": "(stereo in doubt) [Example 114, (S)-N-(3-(6-Ethyl-5-oxo-1,2,4,4a,5,6-hexahydropyrido[2′,3′:5,6]pyrazino[2,1-c][1,4]oxazin-9-yl)-4-methylphenyl)-2-(trifluoromethyl)isonicotinamide]", "IC50": 70}, {"compound": "CCN1C(=O)C2COCCN2c2cc(-c3cc(NC(=O)c4ccnc(C(F)(F)F)c4)ccc3C)cnc21", "note": "(stereo in doubt) [Example 115, (R)-N-(3-(6-ethyl-5-oxo-1,2,4,4a,5,6-hexahydropyrido2′,3′:5,6]pyrazino[2,1-c][1,4]oxazin-9-yl)-4-methylphenyl)-2-(trifluoromethyl)isonicotinamide]", "IC50": 11}, {"compound": "CCN1C(=O)C2[C@H]3COC[C@H]3[C@@H]2c2cc(-c3cc(NC(=O)c4ccnc(C(F)(F)F)c4)ccc3C)cnc21", "note": "(stereo in doubt) [Example 268, N-(3-((6aS, 6bS, 9aS, 9bS)-5-ethyl-6-oxo-5,6,6a,6b,7,9,9a,9b-octahydrofuro[3′,4′: 3,4]cyclobuta[1,2-c][1,8]naphthyridin-2-yl)-4-methylphenyl)-2-(trifluoromethyl) isonicotinamide]", "IC50": 300}, {"compound": "CCN1C(=O)[C@@H]2COCC[C@@]2(C)c2cc(-c3cc(NC(=O)c4ccnc(C(C)(F)F)c4)ccc3C)cnc21", "note": "(stereo in doubt) [Example 343, 2-(1,1-difluoroethyl)-N-(3-((4a,10b-trans)6-ethyl-10b-methyl-5-oxo-2,4,4a,5,6,10b-hexahydro-1H-pyrano[3,4-c][1,8]naphthyridin-9-yl)-4-methylphenyl)isonicotinamide]", "IC50": 200}, {"compound": "CCN1C(=O)[C@H]2COCC[C@]2(C)c2cc(-c3cc(NC(=O)c4ccnc(C(C)(F)F)c4)ccc3C)cnc21", "note": "(stereo in doubt) [Example 344, 2-(1,1-difluoroethyl)-N-(3-((4a,10b-trans)6-ethyl-10b-methyl-5-oxo-2,4,4a,5,6,10b-hexahydro-1H-pyrano[3,4-c][1,8]naphthyridin-9-yl)-4-methylphenyl)isonicotinamide]", "IC50": 100}, {"compound": "CCN1C(=O)C2COCC[C@]2(C)c2cc(-c3cc(NC(=O)c4cncc(C(F)(F)F)c4)ccc3C)cnc21", "note": "(stereo in doubt) [Example 345, N-(3-((4a,10b-trans)-6-ethyl-10b-methyl-5-oxo-1,4,4a,5,6,10b-hexahydro-2H-pyrano[3,4-c][1,8]naphthyridin-9-yl)-4-methylphenyl)-5-(trifluoromethyl)nicotinamide]", "IC50": 800}, {"compound": "CCN1C(=O)C2COCC[C@@]2(C)c2cc(-c3cc(NC(=O)c4cncc(C(F)(F)F)c4)ccc3C)cnc21", "note": "(stereo in doubt) [Example 346, N-(3-((4a,10b-trans)-6-ethyl-10b-methyl-5-oxo-1,4,4a,5,6,10b-hexahydro-2H-pyrano[3,4-c][1,8]naphthyridin-9-yl)-4-methylphenyl)-5-(trifluoromethyl)nicotinamide]", "IC50": 100}, {"compound": "Cc1ccc(NC(=O)c2ccnc(C(C)(C)F)c2)cc1-c1cc2n(c(=O)c1)CCC1CCOCCN21", "note": "(stereo in doubt) [Example 418, (S)-2-(2-fluoropropan-2-yl)-N-(4-methyl-3-(9-oxo-1,2,5,5a,6,7-hexahydro-4H,9H-pyrido[2′,1′:2,3]pyrimido[1,6-d][1,4]oxazepin-11-yl)phenyl)isonicotinamide]", "IC50": 2100}, {"compound": "CCOC(=O)c1c2n(c3cc(-c4cc(NC(=O)c5ccnc(C(F)(F)F)c5)ccc4C)ccc3c1=O)CCOC2", "note": "[Example 1, ethyl 9-(2-methyl-5-(2-(trifluoromethyl)isonicotinamido)phenyl)-6-oxo-1,2,4,6-tetrahydro-[1,4]oxazino[4,3-a]quinoline-5-carboxylate]", "IC50": 45}, {"compound": "Cc1ccc(NC(=O)c2ccnc(C(F)(F)F)c2)cc1-c1ccc2c(=O)c(C(=O)O)c3n(c2c1)CCOC3", "note": "[Example 2, 9-(2-methyl-5-(2-(trifluoromethyl)isonicotinamido)phenyl)-6-oxo-1,2,4,6-tetrahydro-[1,4]oxazino[4,3-a]quinoline-5-carboxylic Acid]", "IC50": 136}, {"compound": "Cc1ccc(NC(=O)c2ccnc(C(F)(F)F)c2)cc1-c1ccc2c(c1)N1CCOC[C@H]1C[C@H]2O", "note": "[Example 4, N-(3-((4aR,6R)-6-hydroxy-1,2,4,4a,5,6-hexahydro-[1,4]oxazino[4,3-a]quinolin-9-yl)-4-methylphenyl)-2-(trifluoromethyl)isonicotinamide]", "IC50": 6.2}, {"compound": "Cc1ccc(NC(=O)c2ccnc(C(F)(F)F)c2)cc1-c1ccc2c(c1)N1CCOC[C@@H]1C[C@@H]2O", "note": "[Example 5, N-(3-((4aS,6S)-6-hydroxy-1,2,4,4a,5,6-hexahydro-[1,4]oxazino[4,3-a]quinolin-9-yl)-4-methylphenyl)-2-(trifluoromethyl)isonicotinamide]", "IC50": 36}, {"compound": "Cc1ccc(NC(=O)c2ccnc(C(C)(F)F)c2)cc1-c1ccc2c(c1)N1CCOC[C@H]1C[C@H]2O", "note": "[Example 13, 2-(1,1-difluoroethyl)-N-(3-((4aR,6R)-6-hydroxy-1,2,4,4a,5,6-hexahydro-[1,4]oxazino[4,3-a]quinolin-9-yl)-4-methylphenyl)isonicotinamide]", "IC50": 5.5}, {"compound": "Cc1ccc(NC(=O)c2ccnc(C(C)(F)F)c2)cc1-c1ccc2c(c1)N1CCOC[C@H]1C[C@@]2(C)O", "note": "[Example 24, 2-(1,1-difluoroethyl)-N-(3-((4aR,6R)-6-hydroxy-6-methyl-1,2,4,4a,5,6-hexahydro-[1,4]oxazino[4,3-a]quinolin-9-yl)-4-methylphenyl)isonicotinamide]", "IC50": 49}, {"compound": "Cc1ccc(NC(=O)c2ccnc(C(C)(F)F)c2)cc1-c1ccc2c(c1)N1CCOC[C@@H]1C[C@]2(C)O", "note": "[Example 25, 2-(1,1-difluoroethyl)-N-(3-((4aS,6S)-6-hydroxy-6-methyl-1,2,4,4a,5,6-hexahydro-[1,4]oxazino[4,3-a]quinolin-9-yl)-4-methylphenyl)isonicotinamide]", "IC50": 520}, {"compound": "COC1CC2COCCN2c2cc(-c3cc(NC(=O)c4ccnc(C(C)(F)F)c4)ccc3C)cnc21", "note": "(centres unmarked) [Example 33, 2-(1,1-difluoroethyl)-N-(3-(6-methoxy-1,2,4,4a,5,6-hexahydro-[1,4]oxazino[4,3-a][1,5]naphthyridin-9-yl)-4-methylphenyl)isonicotinamide]", "IC50": 8.2}, {"compound": "Cc1ccc(NC(=O)c2ccnc(C(C)(F)F)c2)cc1-c1ccc2c(c1)N1CCOC[C@@H]1C(CO)(CO)C2", "note": "[Example 53, (S)—N-(3-(5,5-bis(hydroxymethyl)-1,2,4,4a,5,6-hexahydro-[1,4]oxazino[4,3-a]quinolin-9-yl)-4-methylphenyl)-2-(1,1-difluoroethyl)isonicotinamide]", "IC50": 6.2}, {"compound": "Cc1ccc(NC(=O)c2ccnc(C(C)(F)F)c2)cc1-c1ccc2c(c1)N1CCOC[C@H]1C1(COC1)C2", "note": "[Example 57, (R)-2-(1,1-difluoroethyl)-N-(4-methyl-3-(1′,2′,4′,4a′-tetrahydro-6′H-spiro[oxetane-3,5′-[1,4]oxazino[4,3-a]quinolin]-9′-yl)phenyl)isonicotinamide]", "IC50": 11}, {"compound": "Cc1ccc(NC(=O)c2ccnc(C(C)(F)F)c2)cc1-c1ccc2c(c1)N1CCOC[C@@H]1C1(COC1)C2", "note": "[Example 58, (S)-2-(1,1-difluoroethyl)-N-(4-methyl-3-(1′,2′,4′,4a′-tetrahydro-6′H-spiro[oxetane-3,5′-[1,4]oxazino[4,3-a]quinolin]-9′-yl)phenyl)isonicotinamide]", "IC50": 10}, {"compound": "Cc1ccc(NC(=O)c2ccnc(C(C)(F)F)c2)cc1-c1ccc2c(c1)N1CCOC[C@H]1[C@](F)(CO)C2", "note": "[Example 80, 2-(1,1-difluoroethyl)-N-(3-((4aS,5S)-5-fluoro-5-(hydroxymethyl)-1,2,4,4a,5,6-hexahydro-[1,4]oxazino[4,3-a]quinolin-9-yl)-4-methylphenyl)isonicotinamide]", "IC50": 420}, {"compound": "Cc1ccc(NC(=O)c2ccnc(C(C)(F)F)c2)cc1-c1ccc2c(c1)N1CCOC[C@@H]1[C@@](F)(CO)C2", "note": "[Example 81, 2-(1,1-difluoroethyl)-N-(3-((4aR,5R)-5-fluoro-5-(hydroxymethyl)-1,2,4,4a,5,6-hexahydro-[1,4]oxazino[4,3-a]quinolin-9-yl)-4-methylphenyl)isonicotinamide]", "IC50": 81}, {"compound": "Cc1ncc(NC(=O)c2ccnc(C(C)(F)F)c2)cc1-c1ccc2c(c1)N1CCOC[C@H]1[C@](F)(CO)C2", "note": "[Example 84, 2-(1,1-difluoroethyl)-N-(5-((4aS,5S)-5-fluoro-5-(hydroxymethyl)-1,2,4,4a,5,6-hexahydro-[1,4]oxazino[4,3-a]quinolin-9-yl)-6-methylpyridin-3-yl)isonicotinamide]", "IC50": 1000}, {"compound": "Cc1ncc(NC(=O)c2ccnc(C(C)(F)F)c2)cc1-c1ccc2c(c1)N1CCOC[C@@H]1[C@@](F)(CO)C2", "note": "[Example 85, 2-(1,1-difluoroethyl)-N-(5-((4aR,5R)-5-fluoro-5-(hydroxymethyl)-1,2,4,4a,5,6-hexahydro-[1,4]oxazino[4,3-a]quinolin-9-yl)-6-methylpyridin-3-yl)isonicotinamide]", "IC50": 70}, {"compound": "Cc1ccc(NC(=O)c2ccnc(C(C)(F)F)c2)cc1-c1cc2n(c(=O)c1)CCC1COCCN21", "note": "(centres unmarked) [Example 95]", "IC50": 30}, {"compound": "Cc1ncc(NC(=O)c2ccnc(C(C)(F)F)c2)cc1-c1ccc2c(c1)N1CCOCC[C@@H]1C[C@@H]2O", "note": "[Example 97, 2-(1,1-difluoroethyl)-N-(5-((5aR,7S)-7-hydroxy-1,2,5,5a,6,7-hexahydro-4H-[1,4]oxazepino[4,5-a]quinolin-10-yl)-6-methylpyridin-3-yl)isonicotinamide]", "IC50": 14}, {"compound": "Cc1ncc(NC(=O)c2ccnc(C(C)(F)F)c2)cc1-c1ccc2c(c1)N1CCOCC[C@H]1C[C@H]2O", "note": "[Example 98, 2-(1,1-difluoroethyl)-N-(5-((5aS,7R)-7-hydroxy-1,2,5,5a,6,7-hexahydro-4H-[1,4]oxazepino[4,5-a]quinolin-10-yl)-6-methylpyridin-3-yl)isonicotinamide]", "IC50": 560}]}]}
